# Assay results published in ChEMBL document CHEMBL1122736, “Replacement of the peptide-backbone amides connecting Tyr-Gly and Gly-Gly in leucine-enkephalin with ketomethylene groups: synthesis and biological activity” (J Med Chem, 1984).
# Tests used:
# Mus musculus [1] = assay: Analgesic activity in mice by tail-flick test after intracerebroventricular administration at a dose of 48 ug/mouse after time duration of 8 minutes; no of mice survived / total no of mice tested-3; format: functional
# Mus musculus [2] = assay: Analgesic activity in mice by tail-flick test after intracerebroventricular administration at a dose of 48 ug/mouse after time duration of 4 minutes; no of mice survived / total no of mice tested-3; format: functional
# Mus musculus [3] = assay: Analgesic activity in mice by tail-flick test after intracerebroventricular administration at a dose of 60 ug/mouse after time duration of 2 minutes; no of mice survived / total no of mice tested-2; format: functional
# Mus musculus [4] = assay: Analgesic activity in mice by tail-flick test after intracerebroventricular administration at a dose of 40 ug/mouse after time duration of 8 minutes; no of mice survived / total no of mice tested-3; format: functional
# [5] = biological target: Opioid receptor (Rattus norvegicus); assay: Concentration required to inhibit the specific binding of tritiated ligand [3H]DADL to opiate receptor by 50%
# [6] = biological target: Opioid receptor (Rattus norvegicus); assay: Concentration required to inhibit the specific binding of tritiated ligand [3H]naloxone to opiate receptor by 50%
# Mus musculus [7] = assay: Analgesic activity in mice by tail-flick test after intracerebroventricular administration at a dose of 48 ug/mouse after time duration of 2 minutes; no of mice survived / total no of mice tested-2; format: functional
# Mus musculus [8] = assay: Analgesic activity in mice by tail-flick test after intracerebroventricular administration at a dose of 60 ug/mouse after time duration of 4 minutes; no of mice survived / total no of mice tested-3; format: functional
# Mus musculus [9] = assay: Analgesic activity in mice by tail-flick test after intracerebroventricular administration at a dose of 60 ug/mouse after time duration of 8 minutes; no of mice survived / total no of mice tested-3; format: functional
# Mus musculus [10] = assay: Analgesic activity in mice by tail-flick test after intracerebroventricular administration at a dose of 24.3 ug/mouse after time duration of 2 minutes; no of mice survived / total no of mice tested-12; format: functional
# Mus musculus [11] = assay: Analgesic activity in mice by tail-flick test after intracerebroventricular administration at a dose of 40 ug/mouse after time duration of 2 minutes; no of mice survived / total no of mice tested-2; format: functional
# Mus musculus [12] = assay: Analgesic activity in mice by tail-flick test after intracerebroventricular administration at a dose of 12.2 ug/mouse after time duration of 2 minutes; no of mice survived / total no of mice tested-12; format: functional
# Mus musculus [13] = assay: Analgesic activity in mice by tail-flick test after intracerebroventricular administration at a dose of 40 ug/mouse after time duration of 4 minutes; no of mice survived / total no of mice tested-3; format: functional
# Mus musculus [14] = assay: Analgesic activity in mice by tail-flick test after intracerebroventricular administration at a dose of 240 ug/mouse after time duration of 2 minutes; no of mice survived / total no of mice tested-6; format: functional
structure (smiles),measurement,setting,value
CC(C)CC(NC(=O)C(Cc1ccccc1)NC(=O)CCC(=O)CCC(=O)C(N)Cc1ccc(O)cc1)C(=O)O (centres undefined),Analgesic response,Mus musculus [1],0
same,Analgesic response,Mus musculus [2],1
same,Analgesic response,Mus musculus [3],1
same,Analgesic response,Mus musculus [4],0
same,IC50,[5],33 µM
same,IC50,[6],180 µM
same,Analgesic response,Mus musculus [7],1
same,Analgesic response,Mus musculus [8],1
same,Analgesic response,Mus musculus [9],0
same,Analgesic response,Mus musculus [10],6
same,Analgesic response,Mus musculus [11],1
same,Analgesic response,Mus musculus [12],2
same,Analgesic response,Mus musculus [13],1
CC(C)C[C@@H](NC(=O)[C@H](Cc1ccccc1)NC(=O)CNC(=O)[C@@H](C)NC(=O)[C@@H](N)Cc1ccc(O)cc1)C(=O)O [DADLE],Analgesic response,Mus musculus [14],4
